Source: USRE47302E1 (ONYX THERAPEUTICS INC., priority 2013, dated 2019)
≈ marks a conversion by molar mass, not a printed value.

Legend:
[1] = Solubility pH 7; settings: pH 7, aqueous buffer
[2] = molecular target: human constitutive 20S proteasome (c20S) (Homo sapiens, UniProt P28074); assay: 20S proteasome assay, chymotrypsin-like activity (succinyl-Leu-Leu-Val-Tyr-AMC), c20S; assay type: biochemical; settings: LLVY substrate, 1 h continuous
Excerpt: (§1) Assay buffer consisted of TE buffer [20 mmol/L Tris (pH 8.0), 0.5 mmol/L EDTA] with (20S) or without (cell lysate) 0.03% SDS. Reactions were initiated by enzyme or lysate addition and monitored for AMC product formation at 27jC with a plate-based spectofluorometer (Tecan).

[3] = molecular target: T1, proteasome subunit β5 (beta5) (Homo sapiens, UniProt P28074); assay: Proteasome active-site ELISA (ProCISE), beta5, MOLT-4 lysate; assay type: biochemical; settings: MOLT4 lysate, human, 1 h continuous treatment, 25° C.
T1 construct: Lysate from the human acute lymphoblastic leukemia cell line, MOLT-4; endogenous in cells; host or cells: MOLT-4
In short: (§2)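 MOLT-4 cell lysate treated 1 h at 25 °C with compound; probe-bound subunits denatured, pulled down on streptavidin beads and detected with subunit-specific antibodies plus HRP chemiluminescence.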

[4] = molecular target: human 20S immunoproteasome (i20S) (Homo sapiens, UniProt P28062); assay: 20S proteasome assay, chymotrypsin-like activity (succinyl-Leu-Leu-Val-Tyr-AMC), i20S; assay type: biochemical; settings: LLVY substrate, 1 h continuous
Excerpt: as §1

[5] = molecular target: T2, immunoproteasome subunit LMP7 (Homo sapiens, UniProt P28062); assay: Proteasome active-site ELISA (ProCISE), LMP7, MOLT-4 lysate; assay type: biochemical; settings: MOLT4 lysate, 1 h continuous treatment, 25° C.
T2 construct: Lysate from the human acute lymphoblastic leukemia cell line, MOLT-4; endogenous in cells; host or cells: MOLT-4
In short: as §2

`C[C@H](NC(=O)CN1CCOCC1)C(=O)N[C@@H](Cc1ccc(S(C)(=O)=O)cc1)C(=O)N[C@@H](CC1CCCC1)C(=O)[C@@]1(C)CO1` [Compound C-1027, (S)-N-((S)-3-cyclopentyl-1-((R)-2-methyloxiran-2-yl)-1-oxopropan-2-yl)-3-(4-(methylsulfonyl)phenyl)-2-((S)-2-(2-morpholinoacetamido)propanamido)propanamide] gave a solubility [1] of 5750 µg/mL (≈ 9260 µM), an IC50 [2] of 775 nM and an IC50 [3] of 1050 nM. It also gave an IC50 [4] of 108 nM and an IC50 [5] of 165 nM.
`COc1ccc(C[C@H](NC(=O)[C@@H](C)NC(=O)C2CCOCC2)C(=O)N[C@@H](CC2CCCC2)C(=O)[C@@]2(C)CO2)cc1` [Compound C-1028, N-((R)-1-(((S)-1-(((S)-3-cyclopentyl-1-((R)-2-methyloxiran-2-yl)-1-oxopropan-2-yl)amino)-3-(4-methoxyphenyl)-1-oxopropan-2-yl)amino)-1-oxopropan-2-yl)tetrahydro-2H-pyran-4-carboxamide] gave a solubility [1] of 215 µg/mL (≈ 385 µM), an IC50 [2] of 1010 nM and an IC50 [3] of 807 nM. For the same compound, the IC50 [4] was 53.8 nM and the IC50 [5] was 52.6 nM.
Work on `COc1ccc(C[C@H](NC(=O)[C@@H](C)NC(=O)C2CC(=O)C2)C(=O)N[C@@H](CC2CCCC2)C(=O)[C@@]2(C)CO2)cc1` [Compound C-1029, N-((R)-1-(((S)-1-(((S)-3-cyclopentyl-1-((R)-2-methyloxiran-2-yl)-1-oxopropan-2-yl)amino)-3-(4-methoxyphenyl)-1-oxopropan-2-yl)amino)-1-oxopropan-2-yl)-3-oxocyclobutanecarboxamide] yielded a solubility [1] of 822 µg/mL (≈ 1520 µM), an IC50 [2] of 4110 nM and an IC50 [3] of 3790 nM. For the same compound, the IC50 [4] was 214 nM and the IC50 [5] was 303 nM.
Work on `COc1ccc(C[C@H](NC(=O)[C@H](C)NC(=O)CN2CCOCC2)C(=O)N[C@@H](CC2CCCC2)C(=O)[C@H]2CO2)cc1` [Compound C-1030, (S)-N-((S)-3-cyclopentyl-1-((R)-oxiran-2-yl)-1-oxopropan-2-yl)-3-(4-methoxyphenyl)-2-((S)-2-(2-morpholinoacetamido)propanamido)propanamide] yielded a solubility [1] of 220 µg/mL (≈ 394 µM), an IC50 [2] of 201 nM and an IC50 [3] of 497 nM. For the same compound, the IC50 [4] was 7.93 nM and the IC50 [5] was 11.2 nM.
Work on `COc1ccc(C[C@H](NC(=O)[C@@H](C)NC(=O)[C@H]2C[C@H](O)C2)C(=O)N[C@@H](CC2CCCC2)C(=O)[C@@]2(C)CO2)cc1` [Compound C-1041, (1r,3R)-N-((R)-1-(((S)-1-(((S)-3-cyclopentyl-1-((R)-2-methyloxiran-2-yl)-1-oxopropan-2-yl)amino)-3-(4-methoxyphenyl)-1-oxopropan-2-yl)amino)-1-oxopropan-2-yl)-3-hydroxycyclobutanecarboxamide] yielded a solubility [1] of 1830 µg/mL (≈ 3360 µM), an IC50 [2] of 7030 nM and an IC50 [3] of 12500 nM. For the same compound, the IC50 [4] was 232 nM and the IC50 [5] was 440 nM.
For `COc1ccc(C[C@H](NC(=O)[C@H](C)NC(=O)CN2CCC(F)(F)CC2)C(=O)N[C@@H](CC2CCCC2)C(=O)[C@@]2(C)CO2)cc1` [Compound C-1046, (S)-N-((S)-3-cyclopentyl-1-((R)-2-methyloxiran-2-yl)-1-oxopropan-2-yl)-2-((S)-2-(2-(4,4-difluoropiperidin-1-yl)acetamido)propanamido)-3-(4-methoxyphenyl)propanamide], the solubility [1] was 152 µg/mL (≈ 250 µM), the IC50 [2] was 361 nM and the IC50 [3] was 198 nM. It also gave an IC50 [4] of 63.5 nM and an IC50 [5] of 37.9 nM.
Work on `C[C@H](NC(=O)CN1CCOCC1)C(=O)N[C@@H](Cc1ccc(C(N)=O)cc1)C(=O)N[C@@H](CC1CCCC1)C(=O)[C@@]1(C)CO1` [Compound C-1049, 4-((S)-3-(((S)-3-cyclopentyl-1-((R)-2-methyloxiran-2-yl)-1-oxopropan-2-yl)amino)-2-((S)-2-(2-morpholinoacetamido)propanamido)-3-oxopropyl)benzamide] yielded a solubility [1] of 3510 µg/mL (≈ 5990 µM), an IC50 [2] of 305 nM and an IC50 [3] of 796 nM. The IC50 [4] was 66.8 nM and the IC50 [5] was 153 nM.
Compound `C[C@H](NC(=O)CN1CCOCC1)C(=O)N[C@@H](Cc1ccc(C#N)cc1)C(=O)N[C@@H](CC1CCCC1)C(=O)[C@@]1(C)CO1` [Compound C-1050, (S)-3-(4-cyanophenyl)-N-((S)-3-cyclopentyl-1-((R)-2-methyloxiran-2-yl)-1-oxopropan-2-yl)-2-((S)-2-(2-morpholinoacetamido)propanamido)propanamide] has a solubility [1] of 1280 µg/mL (≈ 2250 µM), an IC50 [2] of 277 nM and an IC50 [3] of 765 nM. For the same compound, the IC50 [4] was 53.5 nM and the IC50 [5] was 116 nM.
With `C[C@@H](NC(=O)C1CCOCC1)C(=O)N[C@@H](Cc1ccc(S(C)(=O)=O)cc1)C(=O)N[C@@H](CC1CCCC1)C(=O)[C@@]1(C)CO1` [Compound C-1051, N-((R)-1-(((S)-1-(((S)-3-cyclopentyl-1-((R)-2-methyloxiran-2-yl)-1-oxopropan-2-yl)amino)-3-(4-(methylsulfonyl)phenyl)-1-oxopropan-2-yl)amino)-1-oxopropan-2-yl)tetrahydro-2H-pyran-4-carboxamide] the solubility [1] was 702 µg/mL (≈ 1160 µM), the IC50 [2] was 978 nM and the IC50 [3] was 705 nM. For the same compound, the IC50 [4] was 45.1 nM and the IC50 [5] was 90.8 nM.
`COc1ccc(C[C@H](NC(=O)[C@@H](C)NC(=O)[C@@H]2CCCOC2)C(=O)N[C@@H](CC2CCCC2)C(=O)[C@@]2(C)CO2)cc1` [Compound C-1052, (R)-N-((R)-1-(((S)-1-(((S)-3-cyclopentyl-1-((R)-2-methyloxiran-2-yl)-1-oxopropan-2-yl)amino)-3-(4-methoxyphenyl)-1-oxopropan-2-yl)amino)-1-oxopropan-2-yl)tetrahydro-2H-pyran-3-carboxamide] showed a solubility [1] of 706 µg/mL (≈ 1270 µM), an IC50 [2] of 515 nM and an IC50 [3] of 512 nM. The IC50 [4] was 44.5 nM and the IC50 [5] was 101 nM.
`COc1ccc(C[C@H](NC(=O)[C@@H](C)NC(=O)[C@H]2CCCOC2)C(=O)N[C@@H](CC2CCCC2)C(=O)[C@@]2(C)CO2)cc1` [Compound C-1053, (S)-N-((R)-1-(((S)-1-(((S)-3-cyclopentyl-1-((R)-2-methyloxiran-2-yl)-1-oxopropan-2-yl)amino)-3-(4-methoxyphenyl)-1-oxopropan-2-yl)amino)-1-oxopropan-2-yl)tetrahydro-2H-pyran-3-carboxamide] showed a solubility [1] of 648 µg/mL (≈ 1160 µM), an IC50 [2] of 3770 nM and an IC50 [3] of 4540 nM. The IC50 [4] was 98.9 nM and the IC50 [5] was 270 nM.
Work on `C[C@H](NC(=O)CN1CCOCC1)C(=O)N[C@@H](Cc1ccc(S(N)(=O)=O)cc1)C(=O)N[C@@H](CC1CCCC1)C(=O)[C@@]1(C)CO1` [Compound C-1054, (S)-N-((S)-3-cyclopentyl-1-((R)-2-methyloxiran-2-yl)-1-oxopropan-2-yl)-2-((S)-2-(2-morpholinoacetamido)propanamido)-3-(4-sulfamoylphenyl)propanamide] yielded a solubility [1] of 2860 µg/mL (≈ 4600 µM), an IC50 [2] of 667 nM and an IC50 [3] of 805 nM. For the same compound, the IC50 [4] was 76.5 nM and the IC50 [5] was 131 nM.
Compound `COc1ccc(C[C@H](NC(=O)[C@@H](C)NC(=O)C2COC2)C(=O)N[C@@H](CC2=CCCC2)C(=O)[C@@]2(C)CO2)cc1` [Compound C-1055, N-((R)-1-(((S)-1-(((S)-3-(cyclopent-1-en-1-yl)-1-((R)-2-methyloxiran-2-yl)-1-oxopropan-2-yl)amino)-3-(4-methoxyphenyl)-1-oxopropan-2-yl)amino)-1-oxopropan-2-yl)oxetane-3-carboxamide] has a solubility [1] of 1300 µg/mL (≈ 2460 µM), an IC50 [2] of 4440 nM and an IC50 [3] of 7150 nM. It also gave an IC50 [4] of 149 nM and an IC50 [5] of 953 nM.
